#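 Exposure lasted 48 hours, with cells grown in 96-well plates and compounds tested at five concentrations. Abbreviation: GI50, concentration required for 50% inhibition of growth. TGI: concentration producing complete growth inhibition.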
# Columns and labels:
# Experiment in all cases: inhibition of tumour cell growth, NCI panel, 48 h
# NCI-H226 lung = system: NCI-H226 lung
# EKVX NSCLC = system: EKVX NSCLC
# HS 578T breast = system: HS 578T breast
# HL-60(TB) leukemia = system: HL-60(TB) leukemia
# U251 CNS = system: U251 CNS
# ACHN renal = system: ACHN renal
# BT-549 breast = system: BT-549 breast
# SR leukemia = system: SR leukemia
# SW-620 colon = system: SW-620 colon
# UO-31 renal = system: UO-31 renal
# TK-10 renal = system: TK-10 renal
# OVCAR-8 ovarian = system: OVCAR-8 ovarian
# SNB-75 CNS = system: SNB-75 CNS
# COLO 205 colon = system: COLO 205 colon
# A549 NSCLC = system: A549 NSCLC
# MALME-3M melanoma = system: MALME-3M melanoma
# LOX IMVI melanoma = system: LOX IMVI melanoma
# NCI/ADR-RES ovarian = system: NCI/ADR-RES ovarian
# NCI-H522 lung = system: NCI-H522 lung
# PC-3 prostate = system: PC-3 prostate
# RXF 393 renal = system: RXF 393 renal
# SK-MEL-5 melanoma = system: SK-MEL-5 melanoma
# A498 renal = system: A498 renal
# 786-0 renal = system: 786-0 renal
# IGROV1 ovarian = system: IGROV1 ovarian
# HCC-2998 colon = system: HCC-2998 colon
# HCT-116 colon = system: HCT-116 colon
# HCT-15 colon = system: HCT-15 colon
# HT29 colon = system: HT29 colon
# RPMI-8226 leukemia = system: RPMI-8226 leukemia
# SNB-19 CNS = system: SNB-19 CNS
# DU-145 prostate = system: DU-145 prostate
# NCI-H23 lung = system: NCI-H23 lung
# KM12 colon = system: KM12 colon
# UACC-62 melanoma = system: UACC-62 melanoma
# T-47D breast = system: T-47D breast
# MCF7 breast = system: MCF7 breast
# HOP-92 NSCLC = system: HOP-92 NSCLC
# NCI-H460 lung = system: NCI-H460 lung
# SN12C renal = system: SN12C renal
# MDA-MB-231 breast = system: MDA-MB-231 breast
# UACC-257 melanoma = system: UACC-257 melanoma
# SK-MEL-28 melanoma = system: SK-MEL-28 melanoma
# SF-295 CNS = system: SF-295 CNS
# CCRF-CEM leukemia = system: CCRF-CEM leukemia
# OVCAR-4 ovarian = system: OVCAR-4 ovarian
# MOLT-4 leukemia = system: MOLT-4 leukemia
# SF-268 CNS = system: SF-268 CNS
# OVCAR-5 ovarian = system: OVCAR-5 ovarian
# SK-MEL-2 melanoma = system: SK-MEL-2 melanoma
# HOP-62 NSCLC = system: HOP-62 NSCLC
# M14 melanoma = system: M14 melanoma
# K-562 leukemia = system: K-562 leukemia
# SF-539 CNS = system: SF-539 CNS
# OVCAR-3 ovarian = system: OVCAR-3 ovarian
# SK-OV-3 ovarian = system: SK-OV-3 ovarian
# CAKI-1 renal = system: CAKI-1 renal
structure (smiles),measurement,setting,value
Cc1cc(Cl)cc(NS(=O)(=O)c2ccc(-c3cnc(C4CC4)o3)cc2)c1,GI50,NCI-H226 lung,0.454 µM
same,TGI,NCI-H226 lung,9.89 µM
same,GI50,EKVX NSCLC,0.499 µM
same,TGI,EKVX NSCLC,16.7 µM
same,GI50,HS 578T breast,0.3 µM
same,TGI,HS 578T breast,14.1 µM
same,GI50,HL-60(TB) leukemia,0.156 µM
same,TGI,HL-60(TB) leukemia,2.57 µM
same,GI50,U251 CNS,0.436 µM
same,TGI,U251 CNS,15.6 µM
same,GI50,ACHN renal,0.758 µM
same,TGI,ACHN renal,14.1 µM
same,GI50,BT-549 breast,1.63 µM
same,TGI,BT-549 breast,16.4 µM
same,GI50,SR leukemia,0.0465 µM
same,TGI,SR leukemia,19.1 µM
same,GI50,SW-620 colon,0.218 µM
same,TGI,SW-620 colon,15.5 µM
same,GI50,UO-31 renal,0.798 µM
same,TGI,UO-31 renal,14.8 µM
same,GI50,TK-10 renal,6.22 µM
same,TGI,TK-10 renal,23 µM
same,GI50,OVCAR-8 ovarian,0.716 µM
same,TGI,OVCAR-8 ovarian,18 µM
same,GI50,SNB-75 CNS,0.128 µM
same,TGI,SNB-75 CNS,1.7 µM
same,GI50,COLO 205 colon,0.322 µM
same,TGI,COLO 205 colon,2.71 µM
same,GI50,A549 NSCLC,0.565 µM
same,TGI,A549 NSCLC,16.6 µM
same,GI50,MALME-3M melanoma,0.712 µM
same,TGI,MALME-3M melanoma,22.2 µM
same,GI50,LOX IMVI melanoma,0.279 µM
same,TGI,LOX IMVI melanoma,11.1 µM
same,GI50,NCI/ADR-RES ovarian,0.161 µM
same,TGI,NCI/ADR-RES ovarian,8.91 µM
same,GI50,NCI-H522 lung,0.465 µM
same,TGI,NCI-H522 lung,14.3 µM
same,GI50,PC-3 prostate,0.205 µM
same,TGI,PC-3 prostate,11.9 µM
same,GI50,RXF 393 renal,0.16 µM
same,TGI,RXF 393 renal,0.556 µM
same,GI50,SK-MEL-5 melanoma,0.322 µM
same,TGI,SK-MEL-5 melanoma,6.98 µM
same,GI50,A498 renal,0.0726 µM
same,TGI,A498 renal,1.28 µM
same,GI50,786-0 renal,1.06 µM
same,TGI,786-0 renal,15.9 µM
same,GI50,IGROV1 ovarian,0.331 µM
same,TGI,IGROV1 ovarian,13.5 µM
same,GI50,HCC-2998 colon,0.745 µM
same,TGI,HCC-2998 colon,12.6 µM
same,GI50,HCT-116 colon,0.347 µM
same,TGI,HCT-116 colon,11.1 µM
same,GI50,HCT-15 colon,0.106 µM
same,TGI,HCT-15 colon,12.1 µM
same,GI50,HT29 colon,0.313 µM
same,TGI,HT29 colon,12.1 µM
same,GI50,RPMI-8226 leukemia,0.232 µM
same,TGI,RPMI-8226 leukemia,4.75 µM
same,GI50,SNB-19 CNS,0.412 µM
same,TGI,SNB-19 CNS,15.6 µM
same,GI50,DU-145 prostate,0.374 µM
same,TGI,DU-145 prostate,15.1 µM
same,GI50,NCI-H23 lung,0.52 µM
same,TGI,NCI-H23 lung,13.8 µM
same,GI50,KM12 colon,0.303 µM
same,TGI,KM12 colon,13.3 µM
same,GI50,UACC-62 melanoma,0.174 µM
same,TGI,UACC-62 melanoma,12 µM
same,GI50,T-47D breast,0.379 µM
same,TGI,T-47D breast,26.2 µM
same,GI50,MCF7 breast,0.0702 µM
same,TGI,MCF7 breast,13.8 µM
same,GI50,HOP-92 NSCLC,0.151 µM
same,TGI,HOP-92 NSCLC,4.28 µM
same,GI50,NCI-H460 lung,0.264 µM
same,TGI,NCI-H460 lung,7.22 µM
same,GI50,SN12C renal,0.986 µM
same,TGI,SN12C renal,13.9 µM
same,GI50,MDA-MB-231 breast,0.656 µM
same,TGI,MDA-MB-231 breast,14.5 µM
same,GI50,UACC-257 melanoma,3.18 µM
same,TGI,UACC-257 melanoma,20.8 µM
same,GI50,SK-MEL-28 melanoma,1.28 µM
same,TGI,SK-MEL-28 melanoma,19.5 µM
same,GI50,SF-295 CNS,0.146 µM
same,TGI,SF-295 CNS,11 µM
same,GI50,CCRF-CEM leukemia,0.172 µM
same,TGI,CCRF-CEM leukemia,17.7 µM
same,GI50,OVCAR-4 ovarian,1.07 µM
same,TGI,OVCAR-4 ovarian,19.8 µM
same,GI50,MOLT-4 leukemia,0.451 µM
same,TGI,MOLT-4 leukemia,31.1 µM
same,GI50,SF-268 CNS,1.27 µM
same,TGI,SF-268 CNS,16.5 µM
same,GI50,OVCAR-5 ovarian,0.565 µM
same,TGI,OVCAR-5 ovarian,15.5 µM
same,GI50,SK-MEL-2 melanoma,1.05 µM
same,TGI,SK-MEL-2 melanoma,20.9 µM
same,GI50,HOP-62 NSCLC,0.376 µM
same,TGI,HOP-62 NSCLC,16.4 µM
same,GI50,M14 melanoma,0.351 µM
same,TGI,M14 melanoma,14.2 µM
same,GI50,K-562 leukemia,0.051 µM
same,TGI,K-562 leukemia,> 33.2 µM
same,GI50,SF-539 CNS,0.27 µM
same,TGI,SF-539 CNS,3.2 µM
same,GI50,OVCAR-3 ovarian,0.122 µM
same,TGI,OVCAR-3 ovarian,3.44 µM
same,GI50,SK-OV-3 ovarian,0.783 µM
same,TGI,SK-OV-3 ovarian,22.6 µM
same,GI50,CAKI-1 renal,0.125 µM
same,TGI,CAKI-1 renal,14.5 µM
